Columns and labels:
[1] = target: T1, ALDH2 (Homo sapiens, UniProt P05091); test: ALDH2 activity with 20 μM of the compound (Table 3); format: biochemical; details: 20 μM compound
T1 construct: His-tag (N); made in house; host or cells: E. coli BL21
T1 sequence (P05091 18-517): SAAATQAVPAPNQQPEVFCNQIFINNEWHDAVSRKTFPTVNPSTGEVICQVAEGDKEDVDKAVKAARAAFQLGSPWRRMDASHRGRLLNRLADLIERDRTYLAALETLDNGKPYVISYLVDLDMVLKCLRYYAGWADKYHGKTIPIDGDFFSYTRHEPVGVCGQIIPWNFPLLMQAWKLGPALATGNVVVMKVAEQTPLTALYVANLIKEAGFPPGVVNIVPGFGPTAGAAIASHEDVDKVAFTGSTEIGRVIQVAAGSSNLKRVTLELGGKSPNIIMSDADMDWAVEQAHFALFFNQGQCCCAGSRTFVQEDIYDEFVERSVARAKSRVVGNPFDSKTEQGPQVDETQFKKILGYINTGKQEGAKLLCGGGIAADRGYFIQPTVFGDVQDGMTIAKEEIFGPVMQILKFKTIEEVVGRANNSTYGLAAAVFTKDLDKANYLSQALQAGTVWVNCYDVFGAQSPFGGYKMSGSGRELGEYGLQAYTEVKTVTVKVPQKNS
Summary of the method: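 Compound was tested at 20 μM. ALDH2 oxidation of acetaldehyde with NAD+ cofactor was followed spectrophotometrically as NADH accumulation at 340 nm. Activity is expressed relative to the enzyme's baseline activity, taken as 100%.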

[2] = target: T2, ALDH2 (Mus musculus, UniProt P47738); test: ALDH2 activity of muscle tissue in PAD mice; format: in vivo; details: osmotic pump for 28 days
T2 construct: In this study we have also determined the ALDH2 activity in muscle tissue; from tissue; host or cells: skeletal muscle of WT mice with femoral artery occlusion
T2 sequence (P47738 20-519): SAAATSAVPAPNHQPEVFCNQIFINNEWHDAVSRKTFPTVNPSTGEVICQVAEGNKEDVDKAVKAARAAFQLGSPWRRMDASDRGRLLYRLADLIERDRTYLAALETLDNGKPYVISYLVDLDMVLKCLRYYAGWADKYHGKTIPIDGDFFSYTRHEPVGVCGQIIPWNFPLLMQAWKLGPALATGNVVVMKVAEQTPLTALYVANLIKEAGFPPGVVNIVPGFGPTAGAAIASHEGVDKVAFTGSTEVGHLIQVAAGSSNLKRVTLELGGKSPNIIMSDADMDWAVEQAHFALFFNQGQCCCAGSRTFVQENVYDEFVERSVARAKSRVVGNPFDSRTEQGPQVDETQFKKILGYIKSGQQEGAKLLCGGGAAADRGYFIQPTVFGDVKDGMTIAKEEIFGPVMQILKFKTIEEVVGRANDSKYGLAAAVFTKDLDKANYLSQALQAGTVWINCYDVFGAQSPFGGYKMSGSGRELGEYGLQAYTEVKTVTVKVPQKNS
Method: (§1) The animals, WT mice age 18-22 weeks, were anesthetized with an intraperitoneal (IP) injection of esketamine (100 mg/ml) dose 80-100 mg/kg and xylazine (20 mg/ml) dose 4-6 mg/kg. Hair was entirely removed from the surgical area and a longitudinal incision was made beginning at the inguinal crease along the femoral vessels. The connective tissue sheet between the femoral artery and vein was then carefully dissected and an opening between the femoral artery and vein was made. Artery ligation thread was then used to occlude the femoral artery using triple surgical knots. The incision was then closed and the animals were administered a single dose of buprenorphine (0.1 mg/kg) subcutaneously to control ischemic pain.
(§2) The animals under permanent femoral artery occlusion at day zero, were treated with ALDH2 activators, Alda-1 and AC112, via osmotic pump for 28 days. The effects of the compounds of the present invention on functional capacity were assessed in mice using treadmill exercise in a metabolic chamber.
In this study we have also determined the ALDH2 activity in muscle tissue.

[3] = system: PAD wild type mice; test: Limb ischemia model for peripheral arterial disease (PAD); format: in vivo; details: osmotic pump for 28 days
Method: Mice are anesthetized and hair is entirely removed from the surgical area. A longitudinal incision is inguinal crease along the femoral vessels and the connective tissue sheet between the femoral artery and vein is carefully dissected. An opening between the femoral artery and vein is made and the femoral artery is occluded using triple surgical knots. The incision is then closed.
The animals under permanent femoral artery occlusion are treated with compounds of formula (I) and the effects of the compounds on functional capacity is assessed in mice using treadmill exercise in a metabolic chamber.
The limb ischemia-murine animal model was utilized as a surrogated model for peripheral arterial disease as described in Nature Protocols, 4, 1737-1748 (2009). (Limbourg, A., et. als., Evaluation of postnatal arteriogenesis and angiogenesis in a mouse model of hind-limb ischemia, Nature Protocols, 4, 1737-1748 (2009)). All experiments were run according to national and institutional regulations concerning the use of animals for research purposes and permissions to carry out experiments have to be obtained.
as §1, §2

- activity at 20 µM [1]: > 250%
SMILES: COc1ccc(CNC(=O)c2cc(-c3ncccc3CO)ccc2OCC(C)C)cc1F [AC112]
- ALDH2 activity of muscle tissue [2]: increased the ALDH2 activity of muscle tissue
- pain threshold [3]: improve pain threshold
- skeletal muscle resistance to fatigue (contractility measured ex vivo) [3]: improve the skeletal muscle resistance to fatigue
- PAD-induced skeletal muscle atrophy ([3]; WT mice): minimizes PAD-induced skeletal muscle atrophy
- running distance ([3]; treadmill): improve
- running time ([3]; treadmill): improve

Source: patent US9879036B2, “Mitochondrial aldehyde dehydrogenase-2 binding compounds and methods of use thereof” (Aviv Therapeutics, Inc., priority 2014, dated 2018)
